Results reported in ChEMBL document CHEMBL1144549, “Preparation of secolycorines against acetylcholinesterase” (Bioorg Med Chem, 2007).

Target: Acetylcholinesterase (Electrophorus electricus, UniProt O42275)
Assay: Inhibition of eel AChE

Acetylcholinesterase, sequence (O42275 whole entry): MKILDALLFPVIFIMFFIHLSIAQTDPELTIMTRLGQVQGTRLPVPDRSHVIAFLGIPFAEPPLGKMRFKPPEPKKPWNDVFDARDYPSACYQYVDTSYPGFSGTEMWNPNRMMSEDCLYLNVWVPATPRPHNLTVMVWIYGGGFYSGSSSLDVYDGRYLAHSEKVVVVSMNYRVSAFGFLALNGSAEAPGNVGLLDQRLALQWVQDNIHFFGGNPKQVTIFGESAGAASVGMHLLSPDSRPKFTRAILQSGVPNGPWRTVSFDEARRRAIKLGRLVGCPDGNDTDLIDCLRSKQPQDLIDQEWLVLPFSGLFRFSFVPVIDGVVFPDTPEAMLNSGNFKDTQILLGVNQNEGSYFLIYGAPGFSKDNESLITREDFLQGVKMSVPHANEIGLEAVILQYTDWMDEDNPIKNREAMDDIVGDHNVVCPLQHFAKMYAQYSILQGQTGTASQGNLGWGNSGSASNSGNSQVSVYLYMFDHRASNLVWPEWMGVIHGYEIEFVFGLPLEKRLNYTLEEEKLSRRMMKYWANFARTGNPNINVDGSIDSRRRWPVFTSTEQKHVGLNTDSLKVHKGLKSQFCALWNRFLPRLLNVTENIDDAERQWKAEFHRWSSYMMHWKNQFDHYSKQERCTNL

Compound | IC50 [µM]
CCCN1Cc2cc3c(cc2-c2cccc(CC)c21)OCO3 | 9.98
CCc1cccc2c1N(CC)Cc1cc3c(cc1-2)OCO3 | 8.82
CCc1cccc2c1N(C)Cc1cc3c(cc1-2)OCO3 | 3
CCCCCCN1Cc2cc3c(cc2-c2cccc(CC)c21)OCO3 | < 5
CCCCN1Cc2cc3c(cc2-c2cccc(CC)c21)OCO3 | 5.44
C=Cc1cccc2c1N(CCCCC)Cc1cc3c(cc1-2)OCO3 | < 5
C=Cc1cccc2c1N(CCCCCC)Cc1cc3c(cc1-2)OCO3 | < 5
C=Cc1cccc2c1N(CC)Cc1cc3c(cc1-2)OCO3 | 8.35
C=Cc1cccc2c1N(CCCC)Cc1cc3c(cc1-2)OCO3 | 2.66
CCCCCN1Cc2cc3c(cc2-c2cccc(CC)c21)OCO3 | < 5
C=Cc1cccc2c1N(CCC)Cc1cc3c(cc1-2)OCO3 | 10.6
C=Cc1cccc2c1N(C)Cc1cc3c(cc1-2)OCO3 | 2.89
